# Test results published in patent US10787443B2, “RAF-degrading conjugate compounds” (ZAMBONI CHEM SOLUTIONS INC., priority 2017, dated 2020).
# Tested on: GST-Braf kinase domain and biotinylated E3 substrate adapter (VHL/EloB/EloC complex or CRBN318-425)
# Test: Dimerization assay (AlphaScreen/AlphaLisa), RAF/E3 dimerization
# Format: binding
# Conditions: Table 15; relative value; compounds 4 fold serial dilutions from 20 μM
row,RAF/E3 Dimerization,Compound
1,+ + +,"Cc1ncc(NC(=O)c2cccc(C(F)(F)F)c2)cc1-c1cnc(OCCOCCOCCOCc2cn(CCCCCC(=O)Nc3cccc4c3C(=O)N(C3CCC(=O)NC3=O)C4=O)nn2)c(N2CCOCC2)c1 (stereo not drawn) [Compound 1.007, N-(6′-(2-(2-(2-((1-(6-((2-(2,6-dioxopiperidin-3-yl)-1,3-dioxoisoindolin-4-yl)amino)-6-oxohexyl)-1H-1,2,3-triazol-4-yl)methoxy)ethoxy)ethoxy)ethoxy)-2-methyl-5′-morpholino-[3,3′-bipyridin]-5-yl)-3-(trifluoromethyl)benzamide]"

# Same assay, conditions: Table 17; relative value; compounds 4 fold serial dilutions from 20 μM
row,Compound,RAF/E3 Dimerization
1,"Cc1ccc(NC(=O)c2cccc(C(F)(F)F)c2)cc1-c1cnc(OCCCCc2cn(CCCCCC(=O)Nc3cccc4c3C(=O)N(C3CCC(=O)NC3=O)C4=O)nn2)c(N2CCOCC2)c1 (stereo not drawn) [Compound 2.013, N-(3-(6-(4-(1-(6-((2-(2,6-dioxopiperidin-3-yl)-1,3-dioxoisoindolin-4-yl)amino)-6-oxohexyl)-1H-1,2,3-triazol-4-yl)butoxy)-5-morpholinopyridin-3-yl)-4-methylphenyl)-3-(trifluoromethyl)benzamide]",++ (25% > RAF/E3 Dimerization ≥ 5%)
2,"Cc1ncsc1-c1ccc([C@H](C)NC(=O)[C@@H]2C[C@@H](O)CN2C(=O)[C@H](NC(=O)CCOCCOCCOCCOCCOCCOCCNC(=O)c2cc(Oc3ccc(NC(=O)Nc4ccc(Cl)c(C(F)(F)F)c4)cc3)ccn2)C(C)(C)C)cc1 [Compound 1.016, 4-(4-(3-(4-chloro-3-(trifluoromethyl)phenyl)ureido)phenoxy)-N—((R)-23-((2S,4R)-4-hydroxy-2-(((S)-1-(4-(4-methylthiazol-5-yl)phenyl)ethyl)carbamoyl)pyrrolidine-1-carbonyl)-24,24-dimethyl-21-oxo-3,6,9,12,15,18-hexaoxa-22-azapentacosyl)picolinamide]",+ (5% > RAF/E3 Dimerization)
3,"Cc1ncsc1-c1ccc([C@H](C)NC(=O)C2C[C@@H](O)CN2C(=O)C(NC(=O)CCOCCOCCNC(=O)c2cc(Oc3ccc(NC(=O)Nc4ccc(Cl)c(C(F)(F)F)c4)cc3)ccn2)C(C)(C)C)cc1 (stereo in doubt) [Compound 1.014, 4-(4-(3-(4-chloro-3-(trifluoromethyl)phenyl)ureido)phenoxy)-N-(2-(2-(3-(((R)-1-((2S,4R)-4-hydroxy-2-(((S)-1-(4-(4-methylthiazol-5-yl)phenyl)ethyl)carbamoyl)pyrrolidin-1-yl)-3,3-dimethyl-1-oxobutan-2-yl)amino)-3-oxopropoxy)ethoxy)ethyl)picolinamide]",+ (5% > RAF/E3 Dimerization)
4,"Cc1ccc(NC(=O)c2cccc(C(F)(F)F)c2)cc1-c1cnc(OC(C)Cc2cnnn2CCCCCC(=O)Nc2cccc3c2C(=O)N(C2CCC(=O)NC2=O)C3=O)c(N2CCOCC2)c1 (racemic) [Compound 1.011, (±)-N-(3-(6-((1-(1-(6-((2-(2,6-dioxopiperidin-3-yl)-1,3-dioxoisoindolin-4-yl)amino)-6-oxohexyl)-1H-1,2,3-triazol-5-yl)propan-2-yl)oxy)-5-morpholinopyridin-3-yl)-4-methylphenyl)-3-(trifluoromethyl)benzamide]",+ (5% > RAF/E3 Dimerization)
5,"O=C1CCC(N2Cc3c(CCCCCCOCCOCCNC(=O)c4cc(Oc5ccc(NC(=O)Nc6ccc(Cl)c(C(F)(F)F)c6)cc5)ccn4)cccc3C2=O)C(=O)N1 (stereo not drawn) [Compound 2.034, 4-(4-(3-(4-chloro-3-(trifluoromethyl)phenyl)ureido)phenoxy)-N-(2-(2-((6-(2-(2,6-dioxopiperidin-3-yl)-1-oxoisoindolin-4-yl)hexyl)oxy)ethoxy)ethyl)picolinamide]",++ (25% > RAF/E3 Dimerization ≥ 5%)
6,"Cc1ccc(NC(=O)c2cccc(C(F)(F)F)c2)cc1-c1cnc(OCCOCCOCCOCc2cn(CCCCCC(=O)N[C@@H](C(=O)N3C[C@H](O)C[C@H]3C(=O)N[C@@H](C)c3ccc(-c4scnc4C)cc3)C(C)(C)C)nn2)c(N2CCOCC2)c1 [Compound 2.011, (2S,4R)-1-((R)-3,3-dimethyl-2-(6-(4-((2-(2-(2-((5-(2-methyl-5-(3-(trifluoromethyl)benza-mido)phenyl)-3-morpholinopyridin-2-yl)oxy)ethoxy)ethoxy)ethoxy)methyl)-1H-1,2,3-triazol-1-yl)hexanamido)butanoyl)-4-hydroxy-N—((S)-1-(4-(4-methylthiazol-5-yl)phenyl)-ethyl)pyrrolidine-2-carboxamide]",+++++ (RAF/E3 Dimerization ≥75%)

# Results, then the molecule that gave them:
row,RAF/E3 Dimerization,Compound
1,++++ (75% > RAF/E3 Dimerization ≥ 50%),"CCCCCCNC(=O)Nc1cc(-c2cc3cnc(NCCCCc4cn(CCCCCC(=O)N[C@@H](C(=O)N5C[C@H](O)C[C@H]5C(=O)N[C@@H](C)c5ccc(-c6scnc6C)cc5)C(C)(C)C)nn4)nc3nc2C)c(C)cc1F [Compound 2.037, (2S,4R)-1-((R)-2-(6-(4-(4-((6-(4-fluoro-5-(3-hexylureido)-2-methylphenyl)-7-methylpyrido[2,3-d]pyrimidin-2-yl)amino)butyl)-1H-1,2,3-triazol-1-yl)hexanamido)-3,3-dimethylbutanoyl)-4-hydroxy-N—((S)-1-(4-(4-methylthiazol-5-yl)phenyl)ethyl)pyrrolidine-2-carboxamide]"
2,++++ (75% > RAF/E3 Dimerization ≥ 50%),"Cc1ncc(NC(=O)c2cccc(C(F)(F)F)c2)cc1-c1cnc(OCCOCCOCC(=O)NCCCCCc2cccc3c2CN(C2CCC(=O)NC2=O)C3=O)c(N2CCOCC2)c1 (stereo not drawn) [Compound 2.017, N-(6′-(2-(2-(2-((5-(2-(2,6-dioxopiperidin-3-yl)-1-oxoisoindolin-4-yl)pentyl)amino)-2-oxoethoxy)ethoxy)ethoxy)-2-methyl-5′-morpholino-[3,3′-bipyridin]-5-yl)-3-(trifluoromethyl)benzamide]"
3,+ (5% > RAF/E3 Dimerization),"Cc1ncc(NC(=O)c2cccc(C(F)(F)F)c2)cc1-c1cnc(OC2CCOCC2)c(N2CCN(C(=O)CCCc3cn(CCCCCC(=O)Nc4cccc5c4C(=O)N(C4CCC(=O)NC4=O)C5=O)nn3)CC2)c1 (stereo not drawn) [Compound 2.049, N-(5′-(4-(4-(1-(6-((2-(2,6-dioxopiperidin-3-yl)-1,3-dioxoisoindolin-4-yl)amino)-6-oxohexyl)-1H-1,2,3-triazol-4-yl)butanoyl)piperazin-1-yl)-2-methyl-6′-((tetrahydro-2H-pyran-4-yl)oxy)-[3,3′-bipyridin]-5-yl)-3-(trifluoromethyl)benzamide]"
4,+ (5% > RAF/E3 Dimerization),"O=C1CCC(N2Cc3c(CCCOCCNC(=O)c4cc(Oc5ccc(NC(=O)Nc6ccc(Cl)c(C(F)(F)F)c6)cc5)ccn4)cccc3C2=O)C(=O)N1 (stereo not drawn) [Compound 2.032, 4-(4-(3-(4-chloro-3-(trifluoromethyl)phenyl)ureido)phenoxy)-N-(2-(3-(2-(2,6-dioxopiperidin-3-yl)-1-oxoisoindolin-4-yl)propoxy)ethyl)picolinamide]"
5,++ (25% > RAF/E3 Dimerization ≥ 5%),"O=C1CCC(N2C(=O)c3cccc(CCCOCCOCCNC(=O)c4cc(Oc5ccc(NC(=O)Nc6ccc(Cl)c(C(F)(F)F)c6)cc5)ccn4)c3C2=O)C(=O)N1 (stereo not drawn) [Compound 2.030, 4-(4-(3-(4-chloro-3-(trifluoromethyl)phenyl)ureido)phenoxy)-N-(2-(2-(3-(2-(2,6-dioxopiperidin-3-yl)-1,3-dioxoisoindolin-4-yl)propoxy)ethoxy)ethyl)picolinamide]"
